Assay results reported in patent publication US7700584B2 (Hangzhou Minsheng Pharmaceuticals Co., Ltd., priority 2004, dated 2010).

Columns and labels:
Type in all cases: cell-based
Details in all cases: 50 μg/ml
[1] = system: A-549 human lung adenocarcinoma; test: In vitro inhibition rate to tumor cells (MTT), A-549
Method: (§1) (1) Single cell suspension was seeded into 96-well plates (×3) (the cells was diluted in the PRMI-1640 minimum medium to 3×10^4 cells/ml, […] diluted cells/well). […] The experiments were performed in quadruplicate.
(§2) (2) The medium was removed. Solutions of the anti-tumor agents (15 compounds) were prepared in a freshly prepared medium at the concentrations indicated in the following Table. […] of the solution was added into each well. Incubation was continued for 48 hours.
(§3) (3) […] of 2 mg/ml MTT was added into each well, and incubated for 4 hours.
(§4) (4) The medium was removed from the well. The microplates were swiftly turned down to throw-off the medium. […] DMSO was added into each well, and vortexed at room temperature for 10 minutes.
(§5) (5) OD value (λ=570 nm) was measured with an Enzyme-Linked Detector.
(§6) (6) The inhibition rates (IR) of cell growth were respectively calculated based on the following equation: IR(%)=[1−(average OD of the experimental group/average OD of the control group)]×100%

[2] = system: MCF-7 human mammary adenocarcinoma; test: In vitro inhibition rate to tumor cells (MTT), MCF-7
Method: as §1, §2, §3, §4, §5, §6

[3] = system: LLC mouse Lewis lung carcinoma; test: In vitro inhibition rate to tumor cells (MTT), LLC
Method: as §1, §2, §3, §4, §5, §6

[4] = system: SMMC-7721 human hepatic carcinoma; test: In vitro inhibition rate to tumor cells (MTT), SMMC-7721
Method: as §1, §2, §3, §4, §5, §6

[5] = system: Hela human cervical carcinoma; test: In vitro inhibition rate to tumor cells (MTT), Hela
Method: as §1, §2, §3, §4, §5, §6

[6] = system: Bel-7402 human hepatic carcinoma; test: In vitro inhibition rate to tumor cells (MTT), Bel-7402
Method: as §1, §2, §3, §4, §5, §6

[7] = system: U-937 human histocytic lymphoma; test: In vitro inhibition rate to tumor cells (MTT), U-937
Method: as §1, §2, §3, §4, §5, §6

[8] = system: HL-60 human promyelocytic leukemia; test: In vitro inhibition rate to tumor cells (MTT), HL-60
Method: as §1, §2, §3, §4, §5, §6

SMILES | inhibition rate, Results (%) A-549 ([1]; Table 1) [%] | inhibition rate, Results (%) A-549 ([1]; Table 2 (repeated screening)) [%] | inhibition rate, Results (%) MCF-7 ([2]; Table 1) [%] | inhibition rate, Results (%) MCF-7 ([2]; Table 2 (repeated screening)) [%] | inhibition rate, Results (%) LLC ([3]; Table 1) [%] | inhibition rate, Results (%) LLC ([3]; Table 2 (repeated screening)) [%] | inhibition rate, Results (%) SMMC-7721 ([4]; Table 1) [%] | inhibition rate, Results (%) SMMC-7721 ([4]; Table 2 (repeated screening)) [%] | inhibition rate, Results (%) Hela ([5]; Table 1) [%] | inhibition rate, Results (%) Hela ([5]; Table 2 (repeated screening)) [%] | inhibition rate, Results (%) Bel-7402 ([6]; Table 1) [%] | inhibition rate, Results (%) Bel-7402 ([6]; Table 2 (repeated screening)) [%] | inhibition rate, Results (%) U-937 ([7]; Table 1) [%] | inhibition rate, Results (%) U-937 ([7]; Table 2 (repeated screening)) [%] | inhibition rate, Results (%) HL-60 ([8]; Table 1) [%] | inhibition rate, Results (%) HL-60 ([8]; Table 2 (repeated screening)) [%]
C=C1CC2(OC(C)=O)OC3(CC2C(C)C)C(C)CCC13 (stereo not drawn) [Compound 1, Curcumol acetate] | −9.16 | −6.32 | 45.6 | 41.02 | 1.30 | 1.30 | 23.10 | 28.23 | 51.23 | 55.98 | 32.12 | 25.32 | 45.45 | 34.26 | 23.12 | 12.03
CC(C)C1CC23OC1(O)CC(=CO)C2CCC3C (stereo not drawn) [Compound 18, Curcumol monohydroxy compound] | −2.24 | −0.32 | 57.89 | 54.32 | 4.18 | 0.22 | 13.39 | 0.69 | 60.32 | 65.03 | 13.58 | 11.23 | 70.30 | 69.23 | 4.26 | 7.32
C=CC(=O)OC12CC(=C)C3CCC(C)C3(CC1C(C)C)O2 (stereo not drawn) [Compound 22, Curcumol acrylate] | 19.23 | 12.36 | 88.32 | 85.02 | −6.01 | −6.41 | 44.39 | 40.32 | 63.20 | 61.88 | 12.80 | 0.23 | 60.32 | 50.23 | 21.01 | 21.03
COC12CC(=CBr)C3CCC(C)C3(CC1C(C)C)O2 (stereo not drawn) [Compound 26, Curcumol methyl ether bromide] | −3.24 | −3.12 | 43.21 | 41.21 | 11.77 | −11.77 | 0.97 | −0.97 | 51.00 | 56.55 | 3.45 | −3.45 | 55.32 | 54.23 | −0.23 | −0.23
CCCCNC=C1CC2(OC)OC3(CC2C(C)C)C(C)CCC13 (stereo not drawn) [Compound 27, Curcumol methyl ether n-butyl amine] | 15.01 | 5.23 | 23.78 | 14.36 | −10.89 | −10.00 | 25.94 | 20.36 | 62.31 | 60.21 | 4.65 | 2.31 | 52.98 | 50.98 | 3.19 | 5.969
CCCCNC=C1CC2(OC)OC3(CC2C(C)C)C(C)CCC13.Cl (stereo not drawn) [Compound 28, Curcumol methyl ether n-butyl amine hydrochloride] | 1.23 | 2.31 | 32.15 | 19.98 | 0.24 | 1.23 | −3.78 | −1.02 | 58.75 | 60.45 | −2.24 | −0.45 | 59.32 | 51.23 | 2.98 | 4.32
CCOC12CC(=CO[N+](=O)[O-])C3CCC(C)C3(CC1C(C)C)O2 (stereo not drawn) [Compound 29, Curcumol ethyl ether nitrate] | 3.89 | 1.23 | 37.85 | 30.12 | −10.12 | −1.95 | 4.26 | 5.68 | 56.98 | 50.17 | 2.51 | 3.21 | 25.32 | 12.32 | 42.12 | 42.79
CC(C)C1CC23OC1(O)CC(Br)(CBr)C2CCC3C (stereo not drawn) [Compound 30, Curcumol dibromide] | 4.36 | 4.01 | 36.15 | 30.56 | −1.83 | −4.65 | 1.03 | 4.56 | 53.87 | 56.89 | 12.40 | 9.84 | 13.25 | 13.10 | 13.20 | 4.12
CC(C)C1CC23OC1(O)CC(CO[N+](=O)[O-])(O[N+](=O)[O-])C2CCC3C (stereo not drawn) [Compound 31, Curcumol dinitrate] | 8.65 | 4.82 | 16.75 | 14.87 | 1.13 | 1.25 | −1.96 | −4.56 | 57.98 | 55.49 | 0.23 | 8.42 | −0.68 | −12.61 | 16.50 | 2.78
